{"source": "paper PMC7116955", "about": "(Biochimica et Biophysica Acta. General Subjects, 2005)", "conditions_in_all_cases": "pH 7.4", "key": {"[1]": {"test_system": "Pep 1E", "format": "binding, SARS-CoV"}, "[2]": {"test_system": "Pep 2B", "format": "binding, SARS-CoV"}, "[3]": {"test_system": "Pep HR2", "format": "binding, SARS-CoV"}, "[4]": {"test_system": "Pep 1D", "format": "binding, SARS-CoV"}, "[5]": {"test_system": "Pep 1E", "format": "binding, SARS-CoV", "remark": "listed apart in the source"}, "[6]": {"test_system": "Pep 2B", "format": "binding, SARS-CoV", "remark": "listed apart in the source"}, "[7]": {"test_system": "Pep HR2", "format": "binding, SARS-CoV", "remark": "listed apart in the source"}, "[8]": {"format": "physicochemical"}, "[9]": {"format": "physicochemical", "remark": "listed apart in the source"}, "[10]": {"format": "physicochemical", "remark": "listed apart in the source"}}, "note": "Entries after “also recorded” stand apart in the source; their conditions may differ."}
{"sequence": "WQEWEQKITALLEQAQIQQEKNEYELQKLDKWASLWEWF [Pep T-1249]", "values": [{"measurement": "fluorescence emission intensity variation on titration with Pep 1E", "setting": "[1]", "result": "The same occurs for T-1249, although the results are not so evident"}, {"measurement": "fluorescence emission intensity variation on titration with Pep 2B", "setting": "[2]", "result": "Fluorescence variation was not detected"}, {"measurement": "fluorescence emission intensity variation on titration with Pep HR2", "setting": "[3]", "result": "The same occurs for T-1249, although the results are not so evident"}, {"measurement": "ANS fluorescence increase / interaction with Pep 1D, S peptide added", "setting": "[4]", "result": "exhibit a larger variability; also recorded: low signal/noise ratios, preventing straightforward conclusions"}, {"measurement": "ANS fluorescence / interaction with Pep 1E", "setting": "[5]", "result": "does not interact"}, {"measurement": "ANS fluorescence / interaction with Pep 2B", "setting": "[6]", "result": "no evidence of interaction"}, {"measurement": "ANS fluorescence / interaction with Pep HR2", "setting": "[7]", "result": "no evidence of interaction"}, {"measurement": "self-aggregation by ANS fluorescence", "setting": "[8]", "result": "self-aggregate"}, {"measurement": "interaction with membranes", "setting": "[9]", "result": "most extensive interaction with membranes"}, {"measurement": "membrane partition in presence of Pep 1D", "setting": "[10]", "result": "The same occurs"}, {"measurement": "membrane partition in presence of Pep 1E", "setting": "[10]", "result": "The same occurs"}, {"measurement": "membrane partition in presence of Pep 2B", "setting": "[10]", "result": "no difference occurs"}, {"measurement": "membrane partition in presence of Pep HR2", "setting": "[10]", "result": "no difference occurs"}]}
